From ChEMBL document CHEMBL3045656, “Is the application of carbendazim harmful to healthy plants? Evidence of weak phytotoxicity in tobacco” (J Agric Food Chem, 2002)

How the values were obtained:
Type in all cases: organism-based
Nicotiana tabacum [1] = test: Toxicity in Nicotiana tabacum (tobacco) leaves assessed as effect on chlorophyll-b level at 2.6 mM treated 3 times in 2 weeks measured prior to onset of flowering relative to control; details: in vivo, 336 h, 2600 µM
Nicotiana tabacum [2] = test: Toxicity in Nicotiana tabacum (tobacco) leaves assessed as effect on chlorophyll-b level at 5.2 mM treated 3 times in 2 weeks measured prior to onset of flowering relative to control; details: in vivo, 336 h, 5200 µM
Nicotiana tabacum [3] = test: Toxicity in Nicotiana tabacum (tobacco) leaves assessed as phosphorus level per gram of dry weight per leaf at 1.3 mM treated 3 times in 2 weeks measured prior to onset of flowering relative to control; details: in vivo, 336 h, 1300 µM
Nicotiana tabacum [4] = test: Toxicity in Nicotiana tabacum (tobacco) leaves assessed as phosphorus level per gram of dry weight per leaf at 5.2 mM treated 3 times in 2 weeks measured prior to onset of flowering relative to control; details: in vivo, 336 h, 5200 µM
Nicotiana tabacum [5] = test: Toxicity in Nicotiana tabacum (tobacco) leaves assessed as phosphorus level per gram of dry weight per leaf at 2.6 mM treated 3 times in 2 weeks measured prior to onset of flowering relative to control; details: in vivo, 336 h, 2600 µM
Nicotiana tabacum [6] = test: Toxicity in Nicotiana tabacum (tobacco) leaves assessed as effect on carotenoids level at 2.6 mM treated 3 times in 2 weeks measured prior to onset of flowering relative to control; details: in vivo, 336 h, 2600 µM
Nicotiana tabacum [7] = test: Toxicity in Nicotiana tabacum (tobacco) leaves assessed as nitrogen level per gram of dry weight per leaf at 5.2 mM treated 3 times in 2 weeks measured prior to onset of flowering relative to control; details: in vivo, 336 h, 5200 µM
Nicotiana tabacum [8] = test: Toxicity in Nicotiana tabacum (tobacco) leaves assessed as effect on chlorophyll-a level at 2.6 mM treated 3 times in 2 weeks measured prior to onset of flowering relative to control; details: in vivo, 336 h, 2600 µM
Nicotiana tabacum [9] = test: Toxicity in Nicotiana tabacum (tobacco) leaves assessed as magnesium level per gram of dry weight per leaf at 5.2 mM treated 3 times in 2 weeks measured prior to onset of flowering relative to control; details: in vivo, 336 h, 5200 µM
Nicotiana tabacum [10] = test: Toxicity in Nicotiana tabacum (tobacco) leaves assessed as calcium level per gram of dry weight per leaf at 1.3 mM treated 3 times in 2 weeks measured prior to onset of flowering relative to control; details: in vivo, 336 h, 1300 µM
Nicotiana tabacum [11] = test: Toxicity in Nicotiana tabacum (tobacco) leaves assessed as effect on carotenoids level at 5.2 mM treated 3 times in 2 weeks measured prior to onset of flowering relative to control; details: in vivo, 336 h, 5200 µM
Nicotiana tabacum [12] = test: Toxicity in Nicotiana tabacum (tobacco) leaves assessed as effect on carotenoids level at 1.3 mM treated 3 times in 2 weeks measured prior to onset of flowering relative to control; details: in vivo, 336 h, 1300 µM
Nicotiana tabacum [13] = test: Toxicity in Nicotiana tabacum (tobacco) leaves assessed as reduction of dry weight at 5.2 mM treated 3 times in 2 weeks measured prior to onset of flowering relative to control; design: scale not given: the % may be the effect or the level left; details: in vivo, 336 h, 5200 µM
Nicotiana tabacum [14] = test: Toxicity in Nicotiana tabacum (tobacco) leaves assessed as effect on chlorophyll-a level at 5.2 mM treated 3 times in 2 weeks measured prior to onset of flowering relative to control; details: in vivo, 336 h, 5200 µM
Nicotiana tabacum [15] = test: Toxicity in Nicotiana tabacum (tobacco) leaves assessed as potassium level per gram of dry weight per leaf at 2.6 mM treated 3 times in 2 weeks measured prior to onset of flowering relative to control; details: in vivo, 336 h, 2600 µM
Nicotiana tabacum [16] = test: Toxicity in Nicotiana tabacum (tobacco) leaves assessed as effect on chlorophyll-b level at 1.3 mM treated 3 times in 2 weeks measured prior to onset of flowering relative to control; details: in vivo, 336 h, 1300 µM
Nicotiana tabacum [17] = test: Toxicity in Nicotiana tabacum (tobacco) leaves assessed as calcium level per gram of dry weight per leaf at 5.2 mM treated 3 times in 2 weeks measured prior to onset of flowering relative to control; details: in vivo, 336 h, 5200 µM
Nicotiana tabacum [18] = test: Toxicity in Nicotiana tabacum (tobacco) leaves assessed as magnesium level per gram of dry weight per leaf at 1.3 mM treated 3 times in 2 weeks measured prior to onset of flowering relative to control; details: in vivo, 336 h, 1300 µM
Nicotiana tabacum [19] = test: Toxicity in Nicotiana tabacum (tobacco) leaves assessed as calcium level per gram of dry weight per leaf at 2.6 mM treated 3 times in 2 weeks measured prior to onset of flowering relative to control; details: in vivo, 336 h, 2600 µM
Nicotiana tabacum [20] = test: Toxicity in Nicotiana tabacum (tobacco) leaves assessed as magnesium level per gram of dry weight per leaf at 2.6 mM treated 3 times in 2 weeks measured prior to onset of flowering relative to control; details: in vivo, 336 h, 2600 µM
Nicotiana tabacum [21] = test: Toxicity in Nicotiana tabacum (tobacco) leaves assessed as nitrogen level per gram of dry weight per leaf at 1.3 mM treated 3 times in 2 weeks measured prior to onset of flowering relative to control; details: in vivo, 336 h, 1300 µM
Nicotiana tabacum [22] = test: Toxicity in Nicotiana tabacum (tobacco) leaves assessed as reduction of dry weight at 1.3 to 2.6 mM treated 3 times in 2 weeks measured prior to onset of flowering; details: in vivo, 336 h, 2600 µM
Nicotiana tabacum [23] = test: Toxicity in Nicotiana tabacum (tobacco) leaves assessed as nitrogen level per gram of dry weight per leaf at 2.6 mM treated 3 times in 2 weeks measured prior to onset of flowering relative to control; details: in vivo, 336 h, 2600 µM
Nicotiana tabacum [24] = test: Toxicity in Nicotiana tabacum (tobacco) leaves assessed as potassium level per gram of dry weight per leaf at 5.2 mM treated 3 times in 2 weeks measured prior to onset of flowering relative to control; details: in vivo, 336 h, 5200 µM
Nicotiana tabacum [25] = test: Toxicity in Nicotiana tabacum (tobacco) leaves assessed as potassium level per gram of dry weight per leaf at 1.3 mM treated 3 times in 2 weeks measured prior to onset of flowering relative to control; details: in vivo, 336 h, 1300 µM
Nicotiana tabacum [26] = test: Toxicity in Nicotiana tabacum (tobacco) leaves assessed as effect on chlorophyll-a level at 1.3 mM treated 3 times in 2 weeks measured prior to onset of flowering relative to control; details: in vivo, 336 h, 1300 µM

COC(=O)Nc1nc2ccccc2[nH]1 [CARBENDAZIM]
Activity (Nicotiana tabacum [1]): 24.98 microg/cm2
Activity (Nicotiana tabacum [2]): 21.9 microg/cm2
Activity (Nicotiana tabacum [3]): 9.73 mg
Activity (Nicotiana tabacum [4]): 8.47 mg
Activity (Nicotiana tabacum [5]): 8.61 mg
Activity (Nicotiana tabacum [6]): 4.64 microg/cm2
Activity (Nicotiana tabacum [7]): 38.9 mg
Activity (Nicotiana tabacum [8]): 62.46 microg/cm2
Activity (Nicotiana tabacum [9]): 6.5 mg
Activity (Nicotiana tabacum [10]): 10.5 mg
Activity (Nicotiana tabacum [11]): 3.9 microg/cm2
Activity (Nicotiana tabacum [12]): 4.8 microg/cm2
Activity (Nicotiana tabacum [13]): 17%
Activity (Nicotiana tabacum [14]): 54.14 microg/cm2
Activity (Nicotiana tabacum [15]): 35.4 mg
Activity (Nicotiana tabacum [16]): 25.88 microg/cm2
Activity (Nicotiana tabacum [17]): 10.1 mg
Activity (Nicotiana tabacum [18]): 6.4 mg
Activity (Nicotiana tabacum [19]): 10.2 mg
Activity (Nicotiana tabacum [20]): 6.7 mg
Activity (Nicotiana tabacum [21]): 41.7 mg
Activity (Nicotiana tabacum [22]): Non-toxic
Activity (Nicotiana tabacum [23]): 41.6 mg
Activity (Nicotiana tabacum [24]): 34.1 mg
Activity (Nicotiana tabacum [25]): 36.7 mg
Activity (Nicotiana tabacum [26]): 66.82 microg/cm2
